Source: patent publication US20030207877A1, “Pyridoquinoxaline antivirals” (priority 2001, published 2003)
Values joined by “and” are separate entries in the source; they are usually repeats but may differ in a detail not shown here. Equal entries are not always repeated.

Experiments:
Alpha Polymerase = target: T1, Alpha Polymerase (Homo sapiens, UniProt P09884); experiment: Alpha polymerase inhibition (selectivity); assay type: biochemical
T1 sequence (P09884 1-1462): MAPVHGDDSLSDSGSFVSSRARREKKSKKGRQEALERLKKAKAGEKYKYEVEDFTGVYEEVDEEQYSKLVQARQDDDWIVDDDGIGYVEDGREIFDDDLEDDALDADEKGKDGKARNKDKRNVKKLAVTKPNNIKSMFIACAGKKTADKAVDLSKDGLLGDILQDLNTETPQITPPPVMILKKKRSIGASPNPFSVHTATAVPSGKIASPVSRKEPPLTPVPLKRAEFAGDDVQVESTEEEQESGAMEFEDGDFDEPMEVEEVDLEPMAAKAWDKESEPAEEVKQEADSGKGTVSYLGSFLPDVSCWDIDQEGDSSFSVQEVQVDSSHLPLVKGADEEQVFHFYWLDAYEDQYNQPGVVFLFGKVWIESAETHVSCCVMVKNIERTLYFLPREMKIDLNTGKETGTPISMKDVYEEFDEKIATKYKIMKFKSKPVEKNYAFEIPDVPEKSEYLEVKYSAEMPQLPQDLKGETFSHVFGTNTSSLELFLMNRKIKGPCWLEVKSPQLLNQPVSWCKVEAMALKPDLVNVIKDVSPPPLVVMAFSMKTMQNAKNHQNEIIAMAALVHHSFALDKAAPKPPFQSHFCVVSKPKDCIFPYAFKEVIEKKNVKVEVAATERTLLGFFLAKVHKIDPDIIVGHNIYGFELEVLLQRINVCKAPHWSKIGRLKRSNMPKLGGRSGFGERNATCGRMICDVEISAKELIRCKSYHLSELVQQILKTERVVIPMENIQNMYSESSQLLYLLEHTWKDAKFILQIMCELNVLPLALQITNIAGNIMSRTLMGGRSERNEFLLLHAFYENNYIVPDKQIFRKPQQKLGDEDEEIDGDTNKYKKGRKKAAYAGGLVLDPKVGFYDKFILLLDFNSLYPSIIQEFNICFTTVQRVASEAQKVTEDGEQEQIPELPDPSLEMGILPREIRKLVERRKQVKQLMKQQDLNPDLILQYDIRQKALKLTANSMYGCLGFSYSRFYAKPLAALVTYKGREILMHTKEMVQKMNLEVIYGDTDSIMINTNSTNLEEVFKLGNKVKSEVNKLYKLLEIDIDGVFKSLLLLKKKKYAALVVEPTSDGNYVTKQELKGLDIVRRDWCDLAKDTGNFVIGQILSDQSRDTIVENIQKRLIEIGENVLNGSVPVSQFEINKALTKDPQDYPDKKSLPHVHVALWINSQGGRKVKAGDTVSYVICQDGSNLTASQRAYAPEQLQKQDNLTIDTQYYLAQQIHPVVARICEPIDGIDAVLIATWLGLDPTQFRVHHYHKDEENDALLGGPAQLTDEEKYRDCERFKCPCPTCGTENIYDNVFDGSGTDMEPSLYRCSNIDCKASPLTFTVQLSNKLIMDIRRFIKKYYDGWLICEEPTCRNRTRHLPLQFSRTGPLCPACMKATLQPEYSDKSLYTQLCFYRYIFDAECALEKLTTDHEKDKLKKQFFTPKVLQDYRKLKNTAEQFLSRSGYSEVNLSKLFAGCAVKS

HCMV polymerase = target: T2, HCMV polymerase (Human cytomegalovirus, UniProt P08546); experiment: HCMV polymerase assay (scintillation proximity assay), original and modified version; assay type: biochemical; conditions: SPA; several values per example = repeat determinations, assay version not given; read-out: CMV Polymerase IC50
T2 construct: made in house; host or cells: SF-9 insect cells infected with recombinant baculovirus
T2 sequence (P08546 whole entry): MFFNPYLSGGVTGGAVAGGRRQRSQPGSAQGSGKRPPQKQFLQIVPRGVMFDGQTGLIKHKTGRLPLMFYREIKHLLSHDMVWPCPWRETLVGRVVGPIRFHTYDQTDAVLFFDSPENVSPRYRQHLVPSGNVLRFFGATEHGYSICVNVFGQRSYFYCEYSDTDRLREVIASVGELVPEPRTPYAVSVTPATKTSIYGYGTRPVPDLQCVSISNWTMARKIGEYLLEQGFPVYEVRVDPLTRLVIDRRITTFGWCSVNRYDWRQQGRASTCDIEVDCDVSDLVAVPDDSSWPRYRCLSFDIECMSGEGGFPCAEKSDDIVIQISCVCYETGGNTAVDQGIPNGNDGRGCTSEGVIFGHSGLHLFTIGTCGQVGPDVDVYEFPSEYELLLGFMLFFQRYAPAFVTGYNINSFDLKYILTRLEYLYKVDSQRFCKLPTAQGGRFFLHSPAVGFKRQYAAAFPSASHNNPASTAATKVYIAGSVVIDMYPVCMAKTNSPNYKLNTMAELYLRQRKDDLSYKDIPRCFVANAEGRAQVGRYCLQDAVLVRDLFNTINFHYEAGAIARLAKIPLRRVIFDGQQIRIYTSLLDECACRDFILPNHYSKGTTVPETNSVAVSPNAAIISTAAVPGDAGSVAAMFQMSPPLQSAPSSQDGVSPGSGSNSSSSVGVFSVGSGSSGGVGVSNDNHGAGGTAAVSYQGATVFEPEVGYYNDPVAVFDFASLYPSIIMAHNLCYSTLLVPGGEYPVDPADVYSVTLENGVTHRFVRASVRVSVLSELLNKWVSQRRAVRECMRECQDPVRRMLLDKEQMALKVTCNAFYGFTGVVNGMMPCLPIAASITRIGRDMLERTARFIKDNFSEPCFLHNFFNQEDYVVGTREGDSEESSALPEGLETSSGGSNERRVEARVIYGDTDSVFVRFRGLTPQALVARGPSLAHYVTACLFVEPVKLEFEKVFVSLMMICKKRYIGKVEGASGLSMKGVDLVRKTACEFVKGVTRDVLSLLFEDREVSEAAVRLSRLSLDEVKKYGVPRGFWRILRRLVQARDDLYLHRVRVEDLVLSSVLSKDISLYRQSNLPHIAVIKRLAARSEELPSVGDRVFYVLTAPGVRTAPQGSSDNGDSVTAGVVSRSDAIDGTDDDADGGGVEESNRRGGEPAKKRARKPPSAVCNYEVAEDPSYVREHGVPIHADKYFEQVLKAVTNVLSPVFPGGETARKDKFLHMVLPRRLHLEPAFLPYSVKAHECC
Procedure: The HCMV polymerase assay is performed using a scintillation proximity assay (SPA) as described in several references, such as N.D. Cook, et al., Pharmaceutical Manufacturing International, pages 49-53 (1992); K. Takeuchi, Laboratory Practice, September issue (1992); U.S. Pat. No. 4,568,649 (1986); which are incorporated by reference herein. Reactions are performed in 96-well plates. The assay is conducted in 100 μl volume with 5.4 mM HEPES (pH 7.5), 11.7 MM KCl, 4.5 mM MgCl2, 0.36 mg/ml BSA, and 90 nM ^3H-dTTP. Assays are run with and without CHAPS, (3-[(3-Cholamidopropyl)-dimethylammoniol-1-propane-sulfonate) at a final concentration of 2 mM. HCMV polymerase is diluted in enzyme dilution buffer containing 50% glycerol, 250 mM NaCl, 10 mM HEPES (pH 7.5), 100 μg/ml BSA, and 0.01% sodium azide. The HCMV polymerase, which is expressed in recombinant baculovirus-infected SF-9 cells and purified according to literature procedures, is added at 10% (or 10 μl) of the final reaction volume, i.e., 100 μl. Compounds are diluted in 50% DMSO and 10 μl are added to each well. Control wells contain an equivalent concentration of DMSO. Unless noted otherwise, reactions are initiated via the addition of 6 nM biotinylated poly(dA)-oligo(dT) template/primer to reaction mixtures containing the enzyme, substrate, and compounds of interest. Plates are incubated in a 25° C. or 37° C. H2O bath and terminated via the addition of 40 μl/reaction of 0.5 M EDTA (pH 8) per well. Reactions are terminated within the time-frame during which substrate incorporation is linear and varied depending upon the enzyme and conditions used, i.e., 30 min. for HCMV polymerase. Ten (10) μl of streptavidin-SPA beads (20 mg/ml in PBS/10% glycerol) are added following termination of the reaction. Plates are incubated 10 min. at 37° C., then equilibrated to room temperature, and counted on a Packard Topcount. Linear regressions are performed and IC50's are calculated using computer software.
A modified version of the above HCMV polymerase assay is performed as described above, but with the following changes: Compounds are diluted in 100% DMSO until final dilution into assay buffer. In the previous assay, compounds are diluted in 50% DMSO. 4.5 mM dithiotherotol (DTT) is added to the polymerase buffer.

**Q.** What does the source list for `CN(Cc1cc2c3c(c1)c(=O)c(C(=O)NCc1ccc(Cl)cc1)cn3CC(=O)N2C)CC(O)c1ccc(O)cc1` (racemic) [Example 2, rac N-(4-chlorobenzyl)-9-{([2-hydroxy-2-(4-hydroxyphenyl)ethyl](methyl)amino)methyl}-1-methyl-2,7-dioxo-2,3-dihydro-1H,7H-pyrido[1,2,3-de]quinoxaline-6-carboxamide]?
**A.** IC50 (Alpha Polymerase): > 5000 nM; IC50 (HCMV polymerase): 70 nM and 93 nM; melting point: 145 to 148 °C

**Q.** With `CN(Cc1cc2c3c(c1)c(=O)c(C(=O)NCc1ccc(Cl)cc1)cn3CC(=O)N2C)CC(O)c1cc2ccccc2o1` (racemic) [Example 3, rac 9-{([2-(1-benzofuran-2-yl)-2-hydroxyethyl](methyl)amino)methyl}-N-(4-chlorobenzyl)-1-methyl-2,7-dioxo-2,3-dihydro-1H,7H-pyrido[1,2,3-de]quinoxaline-6-carboxamide] as the molecule, how does the IC50 (Alpha Polymerase) read?
**A.** > 5000 nM

**Q.** What about the IC50 (HCMV polymerase) of the same molecule?
**A.** 8.6 nM and 7.8 nM and 7.2 nM

**Q.** For `Cc1ccc(C(O)CN(C)Cc2cc3c4c(c2)c(=O)c(C(=O)NCc2ccc(Cl)cc2)cn4CC(=O)N3C)o1` (racemic) [Example 6, rac N-(4-chlorobenzyl)-9-{([2-hydroxy-2-(5-methyl-2-furyl)ethyl](methyl)amino)methyl}-1-methyl-2,7-dioxo-2,3-dihydro-1H,7H-pyrido[1,2,3-de]quinoxaline-6-carboxamide], which IC50 (Alpha Polymerase) is on record?
**A.** > 20000 nM

**Q.** And the IC50 (HCMV polymerase)?
**A.** 120 nM and 89 nM

**Q.** And the melting point?
**A.** 159 to 161 °C

**Q.** For `CN(Cc1cc2c3c(c1)c(=O)c(C(=O)NCc1ccc(Cl)cc1)cn3CC(=O)N2C)CC(O)c1csc2ccccc12` (racemic) [Example 15, rac 9-{([2-(1-benzothien-3-yl)-2-hydroxyethyl](methyl)amino)methyl}-N-(4-chlorobenzyl)-1-methyl-2,7-dioxo-2,3-dihydro-1H,7H-pyrido[1,2,3-de]quinoxaline-6-carboxamide], which IC50 (Alpha Polymerase) is on record?
**A.** > 20000 nM

**Q.** What about the IC50 (HCMV polymerase) of the same molecule?
**A.** 110 nM and 86 nM

**Q.** What about the melting point of the same molecule?
**A.** 147 to 149 °C

**Q.** For `CN(Cc1cc2c3c(c1)c(=O)c(C(=O)NCc1ccc(Cl)cc1)cn3CC(=O)N2C)C[C@@H](O)c1ccccc1` [Example 12, N-(4-chlorobenzyl)-9-{[[(2S)-2-hydroxy-2-phenylethyl](methyl)amino]methyl}-1-methyl-2,7-dioxo-2,3-dihydro-1H,7H-pyrido[1,2,3-de]quinoxaline-6-carboxamide], which IC50 (Alpha Polymerase) is on record?
**A.** ≥ 20000 nM

**Q.** With `CN(Cc1cc2c3c(c1)c(=O)c(C(=O)NCc1ccc(F)cc1)cn3CC(=O)N2C)C[C@@H](O)c1nccs1` [Example 27, N-(4-fluorobenzyl)-9-{[[(2R)-2-hydroxy-2-(1,3-thiazol-2-yl)ethyl](methyl)amino]methyl}-1-methyl-2,7-dioxo-2,3-dihydro-1H,7H-pyrido[1,2,3-de]quinoxaline-6-carboxamide] as the molecule, how does the IC50 (HCMV polymerase) read?
**A.** 2080 nM

**Q.** And the melting point?
**A.** 156 to 158 °C

**Q.** Which IC50 (HCMV polymerase) does the source give for `CN(Cc1cc2c3c(c1)c(=O)c(C(=O)NCc1ccc(F)cc1)cn3CC(=O)N2C)C[C@@H](O)c1ccsc1` [Example 28, N-(4-fluorobenzyl)-9-{[[(2S)-2-hydroxy-2-thien-3-ylethyl](methyl)amino]methyl}-1-methyl-2,7-dioxo-2,3-dihydro-1H,7H-pyrido[1,2,3-de]quinoxaline-6-carboxamide] here?
**A.** 690 nM

**Q.** And the melting point?
**A.** 150 to 152 °C

**Q.** Which IC50 (HCMV polymerase) does the source give for `CN(Cc1cc2c3c(c1)c(=O)c(C(=O)NCc1ccc(F)cc1)cn3CC(=O)N2C)C[C@@H](O)c1ccccc1` [Example 29, N-(4-fluorobenzyl)-9-{[[(2S)-2-hydroxy-2-phenylethyl](methyl)amino]methyl}-1-methyl-2,7-dioxo-2,3-dihydro-1H,7H-pyrido[1,2,3-de]quinoxaline-6-carboxamide] here?
**A.** 810 nM

**Q.** And the melting point?
**A.** 150 to 152 °C

**Q.** Which results are given for `CN(Cc1cc2c3c(c1)c(=O)c(C(=O)NCc1ccc(F)cc1)cn3CC(=O)N2C)C[C@@H](O)c1cnccn1` [Example 30, N-(4-fluorobenzyl)-9-{[[(2R)-2-hydroxy-2-pyrazin-2-ylethyl](methyl)amino]methyl}-1-methyl-2,7-dioxo-2,3-dihydro-1H,7H-pyrido[1,2,3-de]quinoxaline-6-carboxamide]?
**A.** IC50 (HCMV polymerase): 1090 nM; melting point: 108 to 110 °C

**Q.** Which IC50 (HCMV polymerase) does the source give for `CN(Cc1cc2c3c(c1)c(=O)c(C(=O)NCc1ccc(Cl)cc1)cn3CC(=O)N2CCO)C[C@@H](O)c1ccco1` [Example 31, N-(4-chlorobenzyl)-9-{([(2R)-2-(2-furyl)-2-hydroxyethyl](methyl)amino)methyl}-1-(2-hydroxyethyl)-2,7-dioxo-2,3-dihydro-1H,7H-pyrido[1,2,3-de]quinoxaline-6-carboxamide] here?
**A.** 2890 nM

**Q.** What about the melting point of the same molecule?
**A.** 166 to 167 °C

**Q.** Which results are given for `CN(Cc1cc2c3c(c1)c(=O)c(C(=O)NCc1ccc(F)cc1)cn3CC(=O)N2C)C[C@@H](O)c1cccs1` [Example 32, N-(4-fluorobenzyl)-9-{[[(2R)-2-hydroxy-2-thien-2-ylethyl](methyl)amino]methyl}-1-methyl-2,7-dioxo-2,3-dihydro-1H,7H-pyrido[1,2,3-de]quinoxaline-6-carboxamide]?
**A.** IC50 (HCMV polymerase): 580 nM; melting point: 113 to 115 °C

**Q.** With `CN(Cc1cc2c3c(c1)c(=O)c(C(=O)NCc1ccc(F)cc1)cn3CC(=O)N2C)C[C@@H](O)c1cc2ccccc2o1` [Example 36, 9-{[[(2R)-2-(1-benzofuran-2-yl)-2-hydroxyethyl](methyl)amino]methyl}-N-(4-fluorobenzyl)-1-methyl-2,7-dioxo-2,3-dihydro-1H,7H-pyrido[1,2,3-de]quinoxaline-6-carboxamide] as the molecule, how does the IC50 (HCMV polymerase) read?
**A.** < 30 nM

**Q.** What about the melting point of the same molecule?
**A.** 94 to 96 °C

**Q.** What does the source list for `CN(Cc1cc2c3c(c1)c(=O)c(C(=O)NCc1ccc(F)cc1)cn3CC(=O)N2C)C[C@H](O)c1cc2ccccc2o1` [Example 37, 9-{[[(2S)-2-(1-benzofuran-2-yl)-2-hydroxyethyl](methyl)amino]methyl}-N-(4-fluorobenzyl)-1-methyl-2,7-dioxo-2,3-dihydro-1H,7H-pyrido[1,2,3-de]quinoxaline-6-carboxamide]?
**A.** IC50 (HCMV polymerase): 1190 nM; melting point: 195 to 197 °C
